Experimental data reported in publication PMC2772130 (Chemical research in toxicology, 2008).
Read-outs that look alike come from different tables or passages of the source.

Legend:
P450 1B1 [1] = target: T1, P450 1B1 (Homo sapiens, UniProt Q16678); experiment: Quenching of PAH; conditions: for interaction with P450 1B1 (quenching of inhibitor fluorescence): inhibitors at 10 nM
T1 sequence (Q16678 1-543): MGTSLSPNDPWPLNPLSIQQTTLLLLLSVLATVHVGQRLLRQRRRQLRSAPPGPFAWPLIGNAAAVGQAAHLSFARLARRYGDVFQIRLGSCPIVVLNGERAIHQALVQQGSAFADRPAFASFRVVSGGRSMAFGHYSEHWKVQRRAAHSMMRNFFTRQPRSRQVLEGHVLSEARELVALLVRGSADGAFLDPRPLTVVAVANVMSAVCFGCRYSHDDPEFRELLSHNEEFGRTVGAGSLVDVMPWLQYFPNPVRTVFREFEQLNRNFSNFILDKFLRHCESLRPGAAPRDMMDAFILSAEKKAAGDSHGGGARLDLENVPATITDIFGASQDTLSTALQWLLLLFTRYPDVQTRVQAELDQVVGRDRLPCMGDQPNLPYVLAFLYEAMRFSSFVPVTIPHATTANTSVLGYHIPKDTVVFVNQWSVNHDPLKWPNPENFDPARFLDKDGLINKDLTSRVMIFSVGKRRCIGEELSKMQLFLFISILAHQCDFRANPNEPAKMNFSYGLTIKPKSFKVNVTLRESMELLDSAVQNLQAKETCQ

P450 1A1 = target: T2, P450 1A1 (Homo sapiens, UniProt P04798); experiment: Quenching of P450 fluorescence with inhibitors, P450 1A1; assay type: binding
T2 sequence (P04798 1-512): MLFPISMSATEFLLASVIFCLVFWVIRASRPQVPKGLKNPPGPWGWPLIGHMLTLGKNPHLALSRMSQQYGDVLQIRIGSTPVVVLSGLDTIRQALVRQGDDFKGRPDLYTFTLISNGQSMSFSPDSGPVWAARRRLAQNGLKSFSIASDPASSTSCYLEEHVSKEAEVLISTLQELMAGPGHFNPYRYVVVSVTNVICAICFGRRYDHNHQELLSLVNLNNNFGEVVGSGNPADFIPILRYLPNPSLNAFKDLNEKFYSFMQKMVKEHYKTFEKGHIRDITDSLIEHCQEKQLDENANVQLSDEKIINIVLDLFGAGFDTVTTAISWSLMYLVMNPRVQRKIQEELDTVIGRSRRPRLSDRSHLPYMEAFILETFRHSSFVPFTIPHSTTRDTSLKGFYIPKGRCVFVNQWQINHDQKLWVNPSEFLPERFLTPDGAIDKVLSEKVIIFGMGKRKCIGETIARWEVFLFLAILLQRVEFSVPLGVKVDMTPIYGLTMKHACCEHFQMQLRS

P450 1B1 [2] = target: T1, P450 1B1
P450 1B1 [3] = target: T1, P450 1B1; experiment: Spectral binding titrations with purified P450 1B1; conditions: for ΔAmax (ΔA~416-A~383) / wavelengths (peak/trough): 1 μM P450 1B1; for ΔAmax (ΔA~416-A~383): means ± S.E.; for wavelengths (peak/trough): pH 7.4
P450 1A2 = target: T3, P450 1A2 (Homo sapiens, UniProt P05177); experiment: Quenching of P450 fluorescence with inhibitors, P450 1A2; assay type: binding
T3 sequence (P05177 1-516): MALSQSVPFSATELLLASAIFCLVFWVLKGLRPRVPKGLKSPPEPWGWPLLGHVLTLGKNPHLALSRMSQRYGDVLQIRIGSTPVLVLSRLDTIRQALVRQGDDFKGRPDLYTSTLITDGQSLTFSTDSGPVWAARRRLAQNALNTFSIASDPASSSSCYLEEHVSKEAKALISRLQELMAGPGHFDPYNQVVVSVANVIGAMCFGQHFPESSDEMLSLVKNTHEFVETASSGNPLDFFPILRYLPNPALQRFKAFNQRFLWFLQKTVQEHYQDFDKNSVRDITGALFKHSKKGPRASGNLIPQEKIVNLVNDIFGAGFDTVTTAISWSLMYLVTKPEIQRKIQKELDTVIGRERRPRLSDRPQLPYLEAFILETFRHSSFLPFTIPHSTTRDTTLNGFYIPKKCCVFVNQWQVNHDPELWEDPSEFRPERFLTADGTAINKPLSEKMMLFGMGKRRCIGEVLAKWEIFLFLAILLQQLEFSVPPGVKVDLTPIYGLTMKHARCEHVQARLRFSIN

P450 1B1 [4] = target: T1, P450 1B1; experiment: Inhibition of P450 1B1-dependent 7-ethoxyresorufin O-deethylation; conditions: for IC50: means and SE; for course of EROD Km values during the incubation: direct inhibitors
P450 1B1 [5] = target: T1, P450 1B1; experiment: Quenching of P450 1B1; assay type: binding; conditions: extrapolated % quenching; 1.0 μM P450 1B1
[6] = inhibition of EROD activity IC50, 15 s of incubation time (direct and direct/restore inhibitors)

Row | Structure (SMILES) | ΔAmax / Ks (P450 1B1 [2]) | Kd (P450 1B1 [3]) [nM] | ΔAmax (ΔA~416-A~383) (P450 1B1 [3]) | wavelengths (peak/trough) (P450 1B1 [3]) | IC50 (P450 1B1 [4]; [6]) [nM] | PAH binding to P450 1B1 Bmax (P450 1B1 [5]) [%] | further results
1 | C=Cc1ccc2ccc3cccc4ccc1c2c34 [1VP, 1-vinylpyrene] | 0.021 | 4300 ± 500 | 0.092 ± 0.006 | 416/383 | 88 ± 10 | 65 ± 2 | Kd (P450 1B1 [1]): 1.9 to 18 nM; Kd (P450 1A1): ~10000 nM; Kd (P450 1A2): ~10000 nM
2 | C#Cc1ccc2ccccc2c1 [2EN, 2-ethynylnaphthalene] | – | 15000 ± 8000 | 0.049 ± 0.038 | 415/383 | 190000 ± 16000 | – | ΔAmax / Ks (P450 1B1 [3]): 0.003; course of EROD Km values during the incubation (P450 1B1 [4]): increased throughout the incubation period
3 | C#Cc1cc2ccc3cccc4ccc(c1)c2c34 [2EP, 2-ethynylpyrene] | 0.021 | 3400 ± 500 | 0.071 ± 0.005 | 416/387 | 110 ± 20 | 69 ± 3 | Kd (P450 1B1 [1]): 1.9 to 18 nM; course of EROD Km values during the incubation (P450 1B1 [4]): increased throughout the incubation period
4 | C#Cc1ccc2c(ccc3ccccc32)c1 [2EPh, 2-ethynylphenanthrene] | 0.020 | 4200 ± 1300 | 0.080 ± 0.013 | 414/383 | 130 ± 21 | 62 ± 4 | Kd (P450 1B1 [1]): 1.9 to 18 nM; course of EROD Km values during the incubation (P450 1B1 [4]): increased throughout the incubation period
5 | CC#Cc1ccc2c(ccc3ccccc32)c1 [2PPh, 2-(1-propynyl)phenanthrene] | 0.030 | 2200 ± 100 | 0.067 ± 0.001 | 415/383 | 100 ± 12 | 77 ± 5 | Kd (P450 1B1 [1]): 1.9 to 18 nM
6 | C#Cc1ccc2ccc3ccccc3c2c1 [3EPh, 3-ethynylphenanthrene] | 0.024 | 3000 ± 400 | 0.071 ± 0.004 | 414/383 | 110 ± 16 | 108 ± 22 | type of spectral change with P450 1B1 (P450 1B1 [3]; difference spectra): reverse type I
7 | Cc1ccc2cc3c(ccc4ccccc43)c3c2c1CC3 [3MC, 3-methylcholanthrene] | – | – | – | – | 14 ± 2 | 105 ± 6 | interaction with P450 1B1 (quenching of inhibitor fluorescence) (P450 1B1 [1]): not found
8 | C#Cc1cc2cccc3ccc4cccc1c4c32 [4EP, 4-ethynylpyrene] | 0.013 | 4000 ± 900 | 0.052 ± 0.006 | 416/383 | 250 ± 20 | 67 ± 3 | Kd (P450 1B1 [1]): 1.9 to 18 nM
9 | C#Cc1ccc(-c2ccccc2)cc1 [4Ebi, 4-ethynylbiphenyl] | – | 7600 ± 1200 | 0.023 ± 0.002 | 416/383 | 3300 ± 500 | – | ΔAmax / Ks (P450 1B1 [3]): 0.003; course of EROD Km values during the incubation (P450 1B1 [4]): increased throughout the incubation period
10 | CC#Cc1ccc(-c2ccccc2)cc1 [4Pbi, 4-(1-propynyl)biphenyl] | – | 12000 ± 5000 | 0.074 ± 0.022 | 415/386 | – | – | ΔAmax / Ks (P450 1B1 [3]): 0.005; IC50 (P450 1B1 [4]; inhibition of EROD activity IC50, 6 min of incubation time (mechanism-based inhibitor)): 17000 ± 2000 nM
11 | Cc1cc2ccccc2c2ccc3ccccc3c12 [5MeCh, 5-methylchrysene] | – | – | – | – | 8 ± 1 | 83 ± 5 | interaction with P450 1B1 (quenching of inhibitor fluorescence) (P450 1B1 [1]): not found
12 | C#Cc1cc2ccccc2c2ccccc12 [9EPh, 9-ethynylphenanthrene] | 0.020 | 3600 ± 1000 | 0.071 ± 0.010 | 415/383 | 140 ± 18 | 52 ± 3 | course of EROD Km values during the incubation (P450 1B1 [4]): increased throughout the incubation period
13 | CC#Cc1cc2ccccc2c2ccccc12 [9PPh, 9-(1-propynyl)phenanthrene] | 0.015 | 3200 ± 300 | 0.049 ± 0.002 | 416/383 | 110 ± 21 | 61 ± 3 | course of EROD Km values during the incubation (P450 1B1 [4]): increased throughout the incubation period
14 | c1ccc2cc3c(ccc4ccccc43)cc2c1 [B[a]A, benz[a]anthracene] | – | – | – | – | – | 46 ± 1 | IC50 (P450 1B1 [4]; read-out: inhibition of EROD activity IC50, 15 s of incubation time (direct and direct/restore inhibitors)): 9 ± 1 nM
15 | c1ccc2c(c1)-c1cccc3c1c-2cc1ccccc13 [B[b]FA, benzo[b]fluoranthene] | – | – | – | – | 5 ± 1 | 91 ± 2 | interaction with P450 1B1 (quenching of inhibitor fluorescence) (P450 1B1 [1]): not found; Kd (P450 1A1): ~10000 nM; Kd (P450 1A2): ~10000 nM
16 | c1ccc2c(c1)c1cccc3ccc4cccc2c4c31 [B[e]P, benzo[e]pyrene] | – | – | – | – | 17 ± 2 | 100 ± 6 | interaction with P450 1B1 (quenching of inhibitor fluorescence) (P450 1B1 [1]): not found
17 | c1ccc2c3c(ccc2c1)-c1cccc2cccc-3c12 [B[j]FA, benzo[j]fluoranthene] | – | – | – | – | 44 ± 6 | – | –
18 | c1ccc2c(c1)ccc1nc3ccc4ccccc4c3cc12 [DB[a,j]Ac, dibenz[a,j]acridine] | – | – | – | – | 15 ± 2 | – | Kd (P450 1B1 [1]): 14 nM
19 | Cc1c2ccccc2c(C)c2c1ccc1ccccc12 [DMBA, 7,12-dimethylbenz[a]anthracene] | – | – | – | – | 300 ± 33 | 62 ± 1 | –
20 | c1ccc2c(c1)-c1cccc3cccc-2c13 [FA, fluoranthene] | – | – | – | – | 15 ± 1 | 91 ± 2 | interaction with P450 1B1 (quenching of inhibitor fluorescence) (P450 1B1 [1]): not found; Kd (P450 1A1): ~10000 nM; Kd (P450 1A2): ~10000 nM
21 | c1ccc2c(c1)ccc1c3ccccc3ccc21 [chrysene] | – | – | – | – | 92 ± 11 | 84 ± 6 | interaction with P450 1B1 (quenching of inhibitor fluorescence) (P450 1B1 [1]): not found
